From patent US8865750B2, “Small molecule inhibitors of RGS proteins” (The Regents of The University of Michigan, priority 2011, dated 2014)
Like-named read-outs stand apart in the source and are kept apart here.

Key:
[1] = test system: RGS4; assay: FCPIA: Gαo binding to RGS4; details: for RGS4 Hill Slope: Table 3; for IC50: read-out: RGS4 IC50
Excerpt: (§1) FCPIA Dose Response and Reversibility Experiments:

[2] = test system: HEK293 cells; assay: Calcium mobilization induced by compound alone; assay type: cell-based; details: for induction of calcium transient by compound alone: 10 μM, HEK293 cells; for Emax at 10 µM: Homo sapiens, HEK293, read-out: Calcium transient (% 50014);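 as to Calcium transient (% 50014): percent of response to 10 µM reference CCG-50014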
Protocol: Calcium Mobilization Experiments:
A stable cell line was developed based upon the HEK-293 Flp-In TREx cell line (Invitrogen, Carlsbad, Calif.) that stably express the muscarinic M3 receptor and have human RGS4 expression under doxycycline control. Cells were maintained in DMEM supplemented with 10% fetal bovine serum and Penicillin (100 units/ml)-Streptomycin (100 μg/ml) under 5% CO2 at 37° C. For experiments, cells were split into 96-well black, clear bottom, poly-D-lysine coated microtiter plates (Nunc, Cat. #152037) at a density of 20,000 cells/well in DMEM containing 10% fetal bovine serum and Penicillin (100 units/ml), Streptomycin (100 μg/ml). RGS4 expression was induced by supplementing the medium with 1 μg/mL doxycycline for 24-48 hours before experimentation. Cells were loaded with Fluo-4 No Wash dye in buffer for 30 minutes at 37° C. Compounds and/or carbachol were added to the wells and the fluorescence intensity was measured using a FlexStation (Molecular Devices, Sunnyvale, Calif.) plate reader. Data analysis was performed by calculating the area under the curve or maximal fluorescence intensity from a 120 second kinetic measurement.

[3] = biological target: RGS8 (Homo sapiens (Human), UniProt P57771); assay: FCPIA: Gαo binding to RGS8; details: for RGS8 Hill Slope: Table 3; for IC50: read-out: RGS8 IC50
Excerpt: as §1

[4] = Table 3, duplex FCPIA, average of two experiments

Chain of RGS8 (P57771 other isoform, or with tags, fused parts or gaps): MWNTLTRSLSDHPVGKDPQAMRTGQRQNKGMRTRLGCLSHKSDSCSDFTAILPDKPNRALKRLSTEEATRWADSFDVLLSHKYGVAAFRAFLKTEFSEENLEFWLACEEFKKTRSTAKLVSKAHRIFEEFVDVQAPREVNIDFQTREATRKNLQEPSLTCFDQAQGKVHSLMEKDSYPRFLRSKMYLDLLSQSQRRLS

| RGS4 Hill Slope [1] | IC50 [1, 4] [nM] | RGS8 Hill Slope [3] | IC50 ([3]; Table 6, FCPIA) [µM] | IC50 [3, 4] [µM] | IC50 ([1]; Table 6, FCPIA) [nM] | SMILES | induction of calcium transient by compound alone [2] | Emax at 10 µM [2] [%] |
| --- | --- | --- | --- | --- | --- | --- | --- | --- |
| −0.87 | 26 | −0.78 | 70.6 | – | – | CCn1sc(=O)n(CC(C)C)c1=O [CCG-203762, 2-ethyl-4-isobutyl-1,2,4-thiadiazolidine-3,5-dione] | no ability to induce calcium mobilization | 38.3 |
| −1.04 | – | −1.50 | 36 | 36 | – | COc1ccc(Cn2c(=O)sn(-c3ccc(Cl)c(Cl)c3)c2=O)cc1 [S27, 2-(3,4-dichlorophenyl)-4-(4-methoxybenzyl)-1,2,4-thiadiazolidine-3,5-dione] | – | 63.4 |
| −1.91 | 121 | −1.09 | – | 7.1 | – | Cc1cccc(-n2sc(=O)n(Cc3ccc(F)cc3)c2=O)c1 [CCG-203788, 2-(3-methylphenyl)-4-(4-fluorobenzyl)-1,2,4-thiadiazolidine-3,5-dione] | – | 134 |
| −1.33 | 11 | −1.27 | 11.4 | – | – | COc1ccc(-n2sc(=O)n(Cc3ccc(F)cc3)c2=O)cc1 [CCG-203735, 2-(4-methoxyphenyl)-4-(4-fluorobenzyl)-1,2,4-thiadiazolidine-3,5-dione] | – | 6.2 |
| −1.47 | – | −0.92 | 7.7 | – | 14 | Cc1ccc(-n2sc(=O)n(CC(C)C)c2=O)cc1 [CCG-203761, 2-p-tolyl-4-isobutyl-1,2,4-thiadiazolidine-3,5-dione] | – | 98.9 |
| −0.70 | – | −1.50 | 11.8 | – | 5.4 | Cc1ccc(-n2sc(=O)n(Cc3ccc(Cl)cc3)c2=O)cc1 [CCG-203731, 2-p-tolyl-4-(4-chlorobenzyl)-1,2,4-thiadiazolidine-3,5-dione] | – | -2.6 |
| −1.43 | 57 | −1.15 | – | 16.4 | – | O=c1sn(-c2cccc(C(F)(F)F)c2)c(=O)n1Cc1ccccc1 [CCG-203772] | – | 165 |
| −0.81 | 16 | −0.59 | – | 31.6 | – | CCCCn1sc(=O)n(Cc2ccc(F)cc2)c1=O [CCG-203765, 2-butyl-4-(4-fluorobenzyl)-1,2,4-thiadiazolidine-3,5-dione] | – | 184 |
| −3.18 | 54 | −0.70 | – | 119 | – | CCCCn1c(=O)sn(C(C)(C)C)c1=O [CCG-203768, 2-t-butyl-4-butyl-1,2,4-thiadiazolidine-3,5-dione] | – | 91.7 |
| −1.70 | – | – | > 100 | > 100 | – | CC(C)(C)c1ccc(Cn2c(=O)sn(-c3ccc(C(C)(C)C)cc3)c2=O)cc1 [S36, 2-(4-t-butylphenyl)-4-(4-t-butylbenzyl)-1,2,4-thiadiazolidine-3,5-dione] | – | 14.8 |
| −1.73 | – | −0.91 | 40.2 | 40.2 | – | COc1ccc(-n2sc(=O)n(Cc3ccc(Cl)cc3)c2=O)cc1 [S6, 2-(4-methoxyphenyl)-4-(4-chlorobenzyl)-1,2,4-thiadiazolidine-3,5-dione] | – | 104 |
| −0.84 | – | −0.66 | – | 20.4 | 7.2 | Cc1ccc(Cn2sc(=O)n(Cc3ccccc3)c2=O)cc1 [CCG-203734, 2-(4-methylbenzyl)-4-benzyl-1,2,4-thiadiazolidine-3,5-dione] | – | 591 |
| −1.42 | 16 | −0.82 | 6.2 | – | – | O=c1sn(-c2ccccc2)c(=O)n1Cc1ccc(F)cc1 [CCG-203726, 2-phenyl-4-(4-fluorobenzyl)-1,2,4-thiadiazolidine-3,5-dione] | – | 20.9 |
| −0.99 | 28 | −0.89 | 56 | – | – | Cn1c(=O)sn(C(C)(C)C)c1=O [CCG-203760, 2-t-butyl-4-methyl-1,2,4-thiadiazolidine-3,5-dione] | no ability to induce calcium mobilization | 47.2 |
| −0.86 | – | −0.64 | 5.9 | 5.9 | – | COc1ccc(-n2sc(=O)n(Cc3ccc(Cl)c(Cl)c3)c2=O)cc1 [S31, 2-(4-methoxyphenyl)-4-(3,4-dichlorobenzyl)-1,2,4-thiadiazolidine-3,5-dione] | – | 202 |
| −1.01 | – | −1.10 | – | 28.4 | 23.5 | CCCCn1sc(=O)n(C)c1=O [CCG-203757, 2-butyl-4-methyl-1,2,4-thiadiazolidine-3,5-dione] | – | 138 |
| −0.85 | 29 | −0.52 | – | 194 | – | CC(C)Cn1c(=O)sn(C(C)(C)C)c1=O [CCG-203763, 2-t-butyl-4-isobutyl-1,2,4-thiadiazolidine-3,5-dione] | – | 73.5 |
| −0.88 | 79 | −1.14 | – | 16.2 | – | O=c1sn(-c2cccc(C(F)(F)F)c2)c(=O)n1Cc1ccc(F)cc1 [CCG-203775, 2-(3-trifluoromethylphenyl)-4-(4-fluorobenzyl)-1,2,4-thiadiazolidine-3,5-dione] | – | 170 |
| −0.96 | – | −0.80 | 7.5 | 7.5 | – | O=c1sn(-c2ccccc2)c(=O)n1Cc1ccc(Cl)c(Cl)c1 [S29, 2-phenyl-4-(3,4-dichlorobenzyl)-1,2,4-thiadiazolidine-3,5-dione] | – | 47.6 |
| −1.72 | – | – | > 100 | > 100 | – | CC(C)(C)c1ccc(Cn2c(=O)sn(-c3ccccc3)c2=O)cc1 [S35, 2-phenyl-4-(4-t-butylbenzyl)-1,2,4-thiadiazolidine-3,5-dione] | – | 14.4 |
| −1.52 | – | −0.95 | 10.1 | 10.1 | – | Cc1cccc(-n2sc(=O)n(Cc3cccc(Cl)c3)c2=O)c1 [S16, 2-m-tolyl-4-(3-chlorobenzyl)-1,2,4-thiadiazolidine-3,5-dione] | – | 142 |
| −1.78 | – | −0.77 | 7.2 | 7.2 | – | COc1ccc(Cn2c(=O)sn(-c3ccccc3)c2=O)cc1 [S24, 2-phenyl-4-(4-methoxybenzyl)-1,2,4-thiadiazolidine-3,5-dione] | – | 18.6 |
| −1.99 | 29 | −0.80 | – | 5.2 | – | O=c1sn(-c2ccc(Cl)cc2)c(=O)n1Cc1ccccc1 [CCG-203723, 2-(4-chlorophenyl)-4-benzyl-1,2,4-thiazolidine-3,5-dione] | – | 120 |
| −0.87 | – | −0.85 | 125 | 125 | – | O=c1sn(-c2ccc(Cl)c(Cl)c2)c(=O)n1Cc1ccc(Cl)c(Cl)c1 [S32, 2-(3,4-dichlorophenyl)-4-(3,4-dichlorobenzyl)-1,2,4-thiadiazolidine-3,5-dione] | – | 49.6 |
| −1.48 | – | −1.36 | 12.7 | 12.7 | – | O=c1sn(-c2ccc(Cl)cc2)c(=O)n1Cc1ccc(Cl)cc1 [S5, 2-(4-chlorophenyl)-4-(4-chlorobenzyl)-1,2,4-thiadiazolidine-3,5-dione] | – | 141 |
| −1.19 | 13 | −0.22 | – | 39.8 | – | Cc1ccc(Cn2sc(=O)n(Cc3ccc(F)cc3)c2=O)cc1 [CCG-203742, 2-(4-methylbenzyl)-4-(4-fluorobenzyl)-1,2,4-thiadiazolidine-3,5-dione] | – | 108 |
| −1.41 | – | −1.47 | 9.4 | 9.4 | – | O=c1sn(-c2ccccc2)c(=O)n1Cc1cccc(Cl)c1 [S14, 2-phenyl-4-(3-chlorobenzyl)-1,2,4-thiadiazolidine-3,5-dione] | – | 57.7 |
| −1.50 | – | −0.87 | 8.3 | 8.3 | – | Cc1ccc(Cn2c(=O)sn(-c3ccccc3)c2=O)cc1 [S9, 2-phenyl-4-(4-methylbenzyl)-1,2,4-thiadiazolidine-3,5-dione] | – | 12.2 |
| −1.79 | – | −0.82 | 10.4 | 10.4 | – | Cc1cccc(Cn2c(=O)sn(-c3cccc(C)c3)c2=O)c1 [S21, 2-m-tolyl-4-(3-methylbenzyl)-1,2,4-thiadiazolidine-3,5-dione] | – | 63.3 |
